Results: patent publication US20040266766A1, “Selective urokinase inhibitors” (Wilex AG, priority 2001, published 2004)
Counter-ions that a name gives are not always drawn. Like-named read-outs stand apart in the source and are kept apart here. One block for each compound: values may come before it.

Legend:
FXa = FXa (Homo sapiens, UniProt P00742); assay: In vitro inhibition of FXa (Ki according to Dixon); format: biochemical
Description: (§1) In order to determine the inhibitory activity, 200 μl Tris buffer (0.05 mol/l containing the inhibitor, 0.154 mol/l NaCl, pH 8.0), 25 μl substrate (Pefachrome uPA, Pefachrome PL or Pefabloc TH in H2O; Pentapharm Ltd, Basle, Switzerland) and 50 μl urokinase (Calbiochem-Novabiochem GmbH, Bad Soden, Germany) or another appropriate protease e.g. plasmin, thrombin or FXa are incubated for 10 minutes at 30° C. After ca. 30 minutes and 30 cycles the absorption is determined at 405 nm by means of a microplate reader (Mediators PHL, Aureon Biosystems, Vienna, Austria). The Ki values were determined according to Dixon by linear regression using a computer program.

Thrombin = Thrombin (Homo sapiens, UniProt P00734); assay: In vitro inhibition of thrombin (Ki according to Dixon); format: biochemical
Description: as §1

mammary carcinoma BN-472 = assay: Tumor spreading, tumor growth and metastasizing in a rat breast cancer model; format: in vivo, brown Norwegian rats; settings: 0.3 mg/kg daily subcutaneously, 4 weeks
Description: 10-25 mm^3 of transplantable metastasising mammary carcinoma BN-472 breast cancer tumor fragments from donor rats were transplanted orthotopically under the mammary fat pad. (Day 0) into 6 to 8 weeks old female brown Norwegian rats. Subcutaneous treatment was started 5 days after tumor inoculation. Each group consisted of 18 animals. The treatment group received a daily dose of 0.3 mg/kg body weight subcutaneously. The treatment-was carried out over a period of 4 weeks.
The dimensions of the subcutaneous tumors and the weight of the animals were determined weekly. At the end of the treatment the animals were sacrificed and tumor weights, organ weights and the number of metastases in relevant tissues were determined.
The data were analyzed using the SigmaStat Vers.2.03 statistical package. Tumor sizes, tumor weights and the weights of the organs were checked with the Shapiro-Wilk W-test for normality of distribution (Royston P., Approximating the Shapiro-Wilk W-test for non-normality. Statistics and Computing 1992, 2:117-119). For each parameter the Shapiro-Wilk W-tests were performed on all data (e.g., tumor weights of all rats), and separately for each treatment group. If one of the P-values was <0.05 the variable was considered to be abnormally distributed and the Mann-Whitney U-test was used to test for significance levels of differences. The Mann-Whitney U-test was used to test for differences in weights of the axillary lymph nodes, intra peritoneal lymph nodes, tumor, and the number of lung foci. Primary and metastatic tumor data at the end of the treatment period were graphically represented using the Box-Whisker graphs, with the box showing the inter-quartile range of values, with a horizontal line at the median value. Whiskers represent the 5th and 95th percentile of values, and the individual values are indicated by dots. The unadjusted level for statistical significance was α=0.05. All tests were two-sided.

Caco-2 cell monolayers = assay: Caco-assay: transport across Caco-2 cell monolayers; format: in vitro ADME, human; settings: for % amount in the basolateral compartment: 10 μg/ml apical, four hours
Description: Transport of the compounds WX-508, WXC-316, WXC-318, WXC-324, WXC-340, WX-532, WX-538, WX-550 and WX-582 across Caco-2 cell monolayers was investigated. In this experiment the bioavailability of the said compounds after oral administration was assessed.
Caco-2-cells (American Type Culture Collection, Rockville, Md., USA) were cultured in Dulbecco's modified Eagle medium (DMEM) (Life Technologies, Gibco BRL, UK) containing 10% vol/vol heat-denatured foetal calf serum (FCS), 1% vol/vol non-essential amino acids, 160 U/ml benzylpenicillin and 100 U/ml streptomycin (Sigma Chemical, St. Louis, Mo., USA). The cells are kept at 37° C. in an atmosphere comprising 95% air and 5% CO2 at 90% relative air humidity. The cells are cultured in […] culture flasks, the medium being replaced every second day and the cells are trypsinized once per week.
For the transport investigations the Caco-2 cells are cultured on porous polycarbonate filter membranes having a pore size of 0.4 μm and a surface of 4.7 cm^2 in clusters of 6 wells (Costar Transwell, Badhoevedorp, Netherlands). The cells are inoculated on each filter at an initial density of 10^4 cells/cm^2. These cells are kept at 37° C. in one of the atmospheres described above. The medium is replaced every second day for a period of three weeks.
On the day of the transport experiment the culture medium was replaced by the same volume of Hank's balanced saline solution (HBSS) buffered with 30 mM HEPES at pH 7.2 (transport medium) and the cells are allowed to equilibrate for 1 hour. Afterwards the apical medium is replaced by 1.5 ml of a solution containing one of the compounds in HBSS/HEPES (10 μg/ml). Cell monolayers are incubated for four hours. Samples of the apical and basolateral compartments are removed at the end of the experiments and used to quantitatively determine the transport of the respective compounds.
The transepithelial electric resistance (TEER) is measured before and after equilibration using a Milicell ERS meter which was connected to a pair of electrodes in order to ensure the integrity of the monolayers formed on the filters. TEER is also measured at the end of the experiments to ensure that the cell monolayer remains coherent.
Samples are taken from the apical and the basolateral side and analysed in a beta counter after adding a scintillation cocktail. All experiments were carried out three times.

[1] = Oral bioavailability and plasma kinetics in mice (serum concentration); format: in vivo, Balb/c mice; settings: mouse; for concentration at 20 min / concentration at 40 min / concentration at 60 min: female, Balb/c, serum, po; for concentration at 20 min: sample at 20 minutes; for concentration at 40 min: sample at 40 minutes; for concentration at 60 min: sample at 60 minutes; for c in the serum 1st analysis: 10 mg/kg i.v.
PK = PK (Homo sapiens, UniProt P03952); assay: In vitro inhibition of PK (Ki); format: biochemical; settings: summary table
Description: as §1

Plasmin = Plasmin (Homo sapiens, UniProt P00747); assay: In vitro inhibition of plasmin (Ki according to Dixon); format: biochemical
Description: as §1

urokinase (uPA) = target: T1, urokinase (uPA) (Homo sapiens, UniProt P00749); assay: In vitro inhibition of urokinase (Ki according to Dixon, chromogenic substrate); format: biochemical
T1 construct: purchased Calbiochem-Novabiochem GmbH, Bad Soden, Germany
Procedure, shortened: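 Chromogenic read-out in 0.05 mol/l Tris, 0.154 mol/l NaCl, pH 8.0, with inhibitor, substrate (Pefachrome uPA, Pefachrome PL or Pefabloc TH) and protease, incubated 10 min at 30 °C. Absorbance at 405 nm was read after ca. 30 min (30 cycles). Ki was derived by Dixon linear regression.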

mouse mammary carcinoma = settings: cited from earlier work
rat prostate carcinoma = settings: syngenic model for rat prostate carcinoma; cited from earlier work
uPA = uPA (Homo sapiens, UniProt P00749); settings: background, literature; read-out: Ki, uPA (inhibition constant); cited from earlier work
[2] = system: DU145 tumors (a prostate adenocarcinoma cell line); settings: SCID mice, orally 125 to 250 mg/kg/day; cited from earlier work
[3] = system: rat breast adenocarcinoma cells; settings: after i.v. inoculation of rat breast adenocarcinoma cells; cited from earlier work
[4] = 30 mg/kg, 30 mg/kg oral, read-out: c in the serum 1st analysis
[5] = 30 mg/kg, 30 mg/kg oral, read-out: c in the serum 2nd analysis
[6] = 300 mg/kg, 300 mg/kg oral, read-out: c in the serum 1st analysis

Chain of Plasmin (P00747 581-810 limits assumed, species assumed): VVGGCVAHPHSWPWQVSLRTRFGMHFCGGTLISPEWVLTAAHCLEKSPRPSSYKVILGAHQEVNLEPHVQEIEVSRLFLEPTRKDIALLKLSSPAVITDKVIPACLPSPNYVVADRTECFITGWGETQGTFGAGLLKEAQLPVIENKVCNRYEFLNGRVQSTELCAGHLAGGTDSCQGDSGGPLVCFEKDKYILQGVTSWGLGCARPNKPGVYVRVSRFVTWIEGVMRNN
Chain of Plasmin (P00747 97-580 partner limits assumed, species assumed): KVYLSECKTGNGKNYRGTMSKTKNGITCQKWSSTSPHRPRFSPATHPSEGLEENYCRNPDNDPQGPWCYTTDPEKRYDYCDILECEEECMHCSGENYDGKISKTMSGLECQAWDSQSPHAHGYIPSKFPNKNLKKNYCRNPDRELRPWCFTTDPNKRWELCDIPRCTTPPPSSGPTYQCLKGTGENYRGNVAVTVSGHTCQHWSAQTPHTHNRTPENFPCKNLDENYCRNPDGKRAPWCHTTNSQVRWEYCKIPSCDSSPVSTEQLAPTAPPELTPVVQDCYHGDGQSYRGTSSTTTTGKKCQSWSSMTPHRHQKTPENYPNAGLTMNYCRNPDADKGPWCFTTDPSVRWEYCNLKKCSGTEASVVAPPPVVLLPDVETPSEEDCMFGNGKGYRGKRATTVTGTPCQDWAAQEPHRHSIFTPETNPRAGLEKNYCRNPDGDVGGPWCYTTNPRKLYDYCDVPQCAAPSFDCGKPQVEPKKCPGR
Chain of FXa (P00742 235-488 limits assumed): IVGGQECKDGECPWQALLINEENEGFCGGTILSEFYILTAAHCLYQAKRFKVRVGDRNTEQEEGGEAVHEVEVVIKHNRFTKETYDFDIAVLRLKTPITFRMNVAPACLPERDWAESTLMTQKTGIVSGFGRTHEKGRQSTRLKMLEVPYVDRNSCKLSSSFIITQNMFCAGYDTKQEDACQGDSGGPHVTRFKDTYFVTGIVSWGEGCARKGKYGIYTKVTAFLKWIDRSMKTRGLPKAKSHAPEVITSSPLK
Chain of FXa (P00742 41-179 partner limits assumed): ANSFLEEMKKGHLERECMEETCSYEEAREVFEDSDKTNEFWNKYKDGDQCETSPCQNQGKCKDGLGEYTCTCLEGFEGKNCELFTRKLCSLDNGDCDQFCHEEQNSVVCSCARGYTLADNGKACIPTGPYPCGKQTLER
Chain of PK (P03952 20-638): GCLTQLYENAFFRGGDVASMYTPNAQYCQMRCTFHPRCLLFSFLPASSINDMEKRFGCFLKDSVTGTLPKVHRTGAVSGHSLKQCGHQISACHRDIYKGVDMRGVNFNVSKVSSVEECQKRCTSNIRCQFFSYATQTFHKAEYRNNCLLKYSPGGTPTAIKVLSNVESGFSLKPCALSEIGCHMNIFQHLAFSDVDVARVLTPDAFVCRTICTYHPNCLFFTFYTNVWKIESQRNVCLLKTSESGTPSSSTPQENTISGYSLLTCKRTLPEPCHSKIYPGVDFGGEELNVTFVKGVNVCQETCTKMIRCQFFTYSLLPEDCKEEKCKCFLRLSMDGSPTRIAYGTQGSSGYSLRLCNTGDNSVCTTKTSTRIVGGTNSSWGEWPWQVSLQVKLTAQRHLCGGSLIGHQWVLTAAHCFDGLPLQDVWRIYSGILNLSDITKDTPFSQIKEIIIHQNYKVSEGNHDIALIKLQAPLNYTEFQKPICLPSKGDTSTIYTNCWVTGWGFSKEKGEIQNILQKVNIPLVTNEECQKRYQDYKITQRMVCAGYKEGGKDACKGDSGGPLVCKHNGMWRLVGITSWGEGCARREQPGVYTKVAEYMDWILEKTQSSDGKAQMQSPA

Ki (FXa): 34 µM
Ki Thrombin (Thrombin): no inh. at 100 μM *)
Ki Thrombin (Thrombin; summary table): no inh. at 100 μM *)
% amount in the basolateral compartment (Caco-2 cell monolayers; first value column): 2.4%
% amount in the basolateral compartment (Caco-2 cell monolayers; second value column): 0.2%
% amount in the basolateral compartment (Caco-2 cell monolayers; third value column): 0.1%
Caco-2 assay % basolateral (Caco-2 cell monolayers; first series, first value): 2.4%
Caco-2 assay % basolateral (Caco-2 cell monolayers; first series, second value): 0.2%
Caco-2 assay % basolateral (Caco-2 cell monolayers; first series, third value): 0.1%
Caco-2 assay % basolateral (Caco-2 cell monolayers; second series, first value): 2.3%
Caco-2 assay % basolateral (Caco-2 cell monolayers; second series, second value): 0.1%
Caco-2 assay % basolateral (Caco-2 cell monolayers; second series, third value): 0.1%
concentration at 20 min [1, 4]: 300 ng/mL
concentration at 20 min [1, 5]: 500 ng/mL
concentration at 40 min [1, 4]: 300 ng/mL
concentration at 40 min [1, 5]: 800 ng/mL
concentration at 60 min [1, 4]: 1400 ng/mL
concentration at 60 min [1, 5]: 2300 ng/mL
concentration at 20 min [1, 6]: 4500 ng/mL
concentration at 40 min [1, 6]: 4900 ng/mL
concentration at 60 min [1, 6]: 4300 ng/mL
c in the serum 1st analysis ([1]; time of sample collection 0): 51.8 µg/mL
c in the serum 1st analysis ([1]; time of sample collection 10): 5.3 µg/mL
c in the serum 1st analysis ([1]; time of sample collection 30): 1.7 µg/mL
Ki (PK): 216 µM
Ki Plasmin (Plasmin): no inh. at 100 μM *)
Ki Plasmin (Plasmin; summary table): no inh. at 100 μM *)
Ki (urokinase (uPA); list of test substances of Example 17, read-out: Ki human uPA): 0.01 µM
Ki (urokinase (uPA); read-out: Ki uPA): 0.01 µM
Ki (urokinase (uPA); summary table, read-out: Ki uPA): 0.01 µM
Compound: N=C(N)Nc1ccc(CNC(=O)CNC(=O)C(CO)NS(=O)(=O)Cc2ccc(Cl)cc2)cc1 (stereo not drawn) [WX-C340, 4-Chlorobenzyl-sulfonyl-(D)-Ser-Gly-(4-guanidinobenzyl)amide hydrochloride]
reduction of the axillary lymph node weights (mammary carcinoma BN-472; compared with the control group, P=0.006): 73%
reduction in the number of lung foci (mammary carcinoma BN-472; compared with the control group, P≦0.001): 63%
reduction of the median tumor weight (mammary carcinoma BN-472; P=0.141): 29%

Compound: N=C(N)c1cc2c(I)cccc2s1 [B428, 4-iodo-benzo[b]-thiophene-2-carboxamidine]
primary tumor growth (mouse mammary carcinoma; administered together with the anti-oestrogen Tamoxifen): further decrease of primary tumor growth
tumor growth and formation of metastases (mouse mammary carcinoma; syngenic model for mouse mammary carcinoma): decrease in tumor growth and formation of metastases
tumor growth and formation of metastases (rat prostate carcinoma): decrease in tumor growth and formation of metastases

Compound: N=C(N)c1ccc(N)cc1 [p-Aminobenzamidine]
Ki (uPA): 82 µM
growth rate of DU145 tumors [2]: considerable decrease in the growth rate
side-effects [2]: negligibly small

Compound: N=C(N)NC(=O)c1nc(Cl)c(N)nc1N [amiloride]
formation of lung metastases [3]: prevents the formation of lung metastases
